{
  "source": "patent US20250387363A1",
  "about": "“LIQUID EPINEPHRINE PRODRUG FORMULATIONS AND LIQUID EPINEPHRINE FORMULATIONS” (Insignis Therapeutics, Inc., priority 2024, published 2025)",
  "key": {"[1]": {"conditions": "rabbits; cited from earlier work"}, "[2]": {"test_system": "healthy adult human volunteers", "assay": "Cross study pharmacodynamic response comparison (SBP, DBP, PR change from baseline) vs EpiPen 0.3 mg", "format": "in vivo", "conditions": "sublingual liquid dosage form, 10 mg dipivefrin HCl, two hours postdose"}, "[3]": {"assay": "Cross study epinephrine PK comparison, L-dipivefrin HCl formulations vs EpiPen 0.3 mg", "format": "in vivo, human", "conditions": "oral formulations administered sublingually; Table 10.1", "text": "FIG. 5. […] Study period I and study period II refer to the two test periods described in example 7 which are separated by a 1 week washout period."}},
  "data": [
    {"smiles": "CNC[C@H](O)c1ccc(O)c(O)c1", "note": "[epinephrine, 4-[(1R)-1-hydroxy-2-(methylamino)ethyl]benzene-1,2-diol]", "values": [
      {"measurement": "Sublingual dose giving systemic absorption equivalent to IM epinephrine", "setting": "[1]", "result": 40, "unit": "mg"}
    ]},
    {"smiles": "CNC[C@H](O)c1ccc(OC(=O)C(C)(C)C)c(OC(=O)C(C)(C)C)c1.Cl", "note": "[L-dipivefrin HCl, L-dipivefrin hydrochloride]", "values": [
      {"measurement": "Median SBP (Systolic Blood Pressure) change from baseline response compared to EpiPen 0.3 mg injection", "setting": "[2]; FIG. 6", "result": "greater"},
      {"measurement": "Median DBP (Diastolic Blood Pressure) change from baseline response compared to EpiPen 0.3 mg injection", "setting": "[2]; FIG. 7", "result": "greater"},
      {"measurement": "Median PR (Pulse Rate) change from baseline response compared to EpiPen 0.3 mg injection", "setting": "[2]; FIG. 8", "result": "comparable or greater"},
      {"measurement": "PD response (SBP, DBP and PR change from baseline) compared to EpiPen 0.3 mg injection", "setting": "[2]; FIGS. 6-8", "result": "comparable or greater"},
      {"measurement": "Epinephrine exposures compared to Epipen 0.3 mg", "setting": "[3]", "result": "comparable"}
    ]}
  ]
}
